Source: patent US4150137A, “Pyridylalkyl esters of 2-(p-isobutylphenyl)acetic acid and propionic acids and use” (Hisamitsu Pharmaceutical Co. Inc., priority 1975, dated 1979)

Legend:
writhing syndrome = assay: Analgetic activity (acetic acid writhing syndrome); type: in vivo, mouse (dd-strain); settings: Mus musculus, 1 h; oral, mice, 0.6% acetic acid i.p. one hour later; Litchfield-Wilcoxon; read-out: analgetic effect ED50 (95% C.L.)
Protocol: Each test compound suspended in 0.5% tragacanth-saline was orally administered to dd-strain mice(body weight: 18-20 g). After one hour 0.6% acetic acid solution was injected intraperitoneally in a volume of 0.1 ml/10 g.

[1] = tested on: carrageenin-induced leakage of the pigment, dorsal skin; assay: Anti-inflammatory activity for topical route (carrageenin, leakage of pigment in dorsal skin); type: in vivo, rat (Wistar-strain); settings: 1% in polyethylene glycol 300, percent inhibition divided by that of ibuprofen
Protocol: The dorsal skin of male rats of Wistar-strain(body weight: about 100 g) were depilated. Carrageenin suspension was injected intra-dermally at a dose of 250 γ/0.05 ml/site. […] Immediately after injection, the filter paper containing 125.2±18.0 mg of the polyethylene glycol was applied on the injected site. After 3 hours, 1% pontamine sky blue solution was injected intravenously at a dose of 0.5 ml/kg. After further 3 hours, the animals were sacrificed and their dorsal skin were removed to measure the area of leakage of the pigment. The percent inhibition was determined with respect to the results for the control animals.

male mice of dd-strain = type: in vivo; settings: death of animals 72 hours following administration
Protocol: Each test compound suspended in 0.5% tragacanth-saline was administered intraperitoneally or orally to male mice of dd-strain(body weight 16-24 g). The lethal dose was estimated from the death of animals 72 hours following administration.

carrageenin edema = assay: Anti-inflammatory activity for oral route (carrageenin edema, hind paw); type: in vivo, rat (Wistar-strain); settings: percent inhibition divided by that of ibuprofen, carrageenin edema after 3 hours; for anti-inflammatory effect, oral, 10 mg/kg (relative inhibition, ibuprofen = 1.0): 10 mg/kg oral; for anti-inflammatory effect, oral, 50 mg/kg (relative inhibition, ibuprofen = 1.0): 50 mg/kg oral
Protocol: After 30 minutes 0.5-1.0% carrageenin suspended in the water for injection was injected subcutaneously to a hind paw. After 3 hours the carrageenin edema was measured by volume, and the percent inhibition was determined with respect to the results for the control animals.

Structure (SMILES)	ED50 (writhing syndrome) [mg/kg]	anti-inflammatory effect, topical (relative inhibition, ibuprofen = 1.0) [1]	acute toxicity, oral (lethal dose) (male mice of dd-strain) [mg/kg]	anti-inflammatory effect, oral, 10 mg/kg (relative inhibition, ibuprofen = 1.0) (carrageenin edema)	anti-inflammatory effect, oral, 50 mg/kg (relative inhibition, ibuprofen = 1.0) (carrageenin edema)
CC(=O)OCCOC(=O)C(C)c1ccc(CC(C)C)cc1 (centres unmarked) [Compound 18]	308	2.2	> 2000	0.7	1.1
CC(C)Cc1ccc(C(C)C(=O)OCCN(C)C)cc1 (centres unmarked)	53.7	2.0	1000 to 2000	0.8	1.2
COc1ccc(COC(=O)C(C)c2ccc(CC(C)C)cc2)cc1 (centres unmarked)	220	2.3		0.8	1.4
CC(C)Cc1ccc(C(C)C(=O)OCc2c(Cl)cccc2Cl)cc1 (centres unmarked)	79.6	2.1	> 2000	0.6	1.0
CCOCCOC(=O)C(C)c1ccc(CC(C)C)cc1 (centres unmarked) [Compound 15]	156	1.2	> 2000	0.7	0.9
CC(C)Cc1ccc(C(C)C(=O)OCC(O)CO)cc1 (centres unmarked) [Compound 11]	143		1000 to 2000	1.1	0.9
CC(C)Cc1ccc(C(C)C(=O)OCc2ccc(Cl)cc2)cc1 (centres unmarked)	486	2.8	> 2000	0.5	1.0
COCOC(=O)C(C)c1ccc(CC(C)C)cc1 (centres unmarked) [Compound 12]	174	2.5	500 to 1000	1.0	1.2
CCOC(=O)COC(=O)C(C)c1ccc(CC(C)C)cc1 (centres unmarked) [Compound 19]	180	1.9	> 2000	0.5	0.7
CC(C)Cc1ccc(C(C)C(=O)OCc2ccccn2)cc1 (centres unmarked)	67.8	4.0	1000 to 2000	0.7	1.8
Cc1ccc(COC(=O)C(C)c2ccc(CC(C)C)cc2)cc1 (centres unmarked)	230	1.9		1.7	1.5
COC(=O)C(C)c1ccc(CC(C)C)cc1 (centres unmarked) [Compound 1]	109	3.5	> 2000	0.8	1.4
CC(C)Cc1ccc(C(C)C(=O)OCC2CC2)cc1 (centres unmarked)	103	3.7	2000	0.8	1.6
CC(C)Cc1ccc(C(C)C(=O)OCCN2CCOCC2)cc1 (centres unmarked)	154	1.6	1000 to 2000	0.7	0.9
CC(C)Cc1ccc(C(C)C(=O)OCc2ccccc2Cl)cc1 (centres unmarked)	51.4	2.5	> 2000	0.5	1.0
CC(C)Cc1ccc(C(C)C(=O)OCC2CCCO2)cc1 (centres unmarked)	91.6	3.1	1000 to 2000	0.6	0.9
